Data taken from the supplement of paper PMC11061612.

What was measured:
[1] = system: G-292-Clone-A141B1 (Osteosarcoma); test: combination Emax (second highest fraction inhibited in the dose matrix, 72 h); higher = more inhibition; extreme values may be limits of the assay
Procedure, shortened: (§1)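 Cell lines grown in DMEM/F12 or RPMI with 10% FBS were plated in 1536-well plates and held 24 hours at 37°C, 5% CO2 before 72 hours of exposure to two-drug dose matrices, with DMSO typically at 0.2%. CellTiter-Glo 2.0 luminescence gave viability, which was converted to inhibition. Vehicle wells were set to 0 and blank wells to 1. Combination Emax is the second-highest inhibition in the matrix, and Bliss excess is the observed combination effect minus the expected EA + EB − EA·EB, where EA and EB are the single-agent effects.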

[2] = system: KARPAS-1106P (B-Cell Non-Hodgkin's Lymphoma); test: as above
Procedure, shortened: as §1

[3] = system: NCI-H1299 (Non-Small Cell Lung Carcinoma); test: as above
Procedure, shortened: as §1

[4] = system: U-266 (Plasma Cell Myeloma); test: as above
Procedure, shortened: as §1

[5] = system: NCI-H211 (Small Cell Lung Carcinoma); test: as above
Procedure, shortened: as §1

[6] = system: COR-L95 (Small Cell Lung Carcinoma); test: as above
Procedure, shortened: as §1

[7] = system: SW1783 (Low Grade Glioma); test: as above
Procedure, shortened: as §1

[8] = system: DB (B-Cell Non-Hodgkin's Lymphoma); test: Bliss excess, mean over the matrix (fraction); higher = more synergy
Procedure, shortened: as §1

[9] = system: HT-29 (Colorectal Carcinoma); test: as above
Procedure, shortened: as §1

[10] = system: SW1990 (Pancreatic Carcinoma); test: as above
Procedure, shortened: as §1

[11] = system: NALM-6 (B-Lymphoblastic Leukemia); test: as above
Procedure, shortened: as §1

[12] = system: KARPAS-620 (Plasma Cell Myeloma); test: as above
Procedure, shortened: as §1

[13] = system: NCI-H1299 (Non-Small Cell Lung Carcinoma); test: as above
Procedure, shortened: as §1

[14] = system: IHH-4 (Thyroid Gland Carcinoma); test: as above
Procedure, shortened: as §1

[15] = system: U-266 (Plasma Cell Myeloma); test: as above
Procedure, shortened: as §1

[16] = system: MDA-MB-231 (Breast Carcinoma); test: as above
Procedure, shortened: as §1

[17] = system: NCI-H2595 (Mesothelioma); test: as above
Procedure, shortened: as §1

[18] = system: NCI-H211 (Small Cell Lung Carcinoma); test: as above
Procedure, shortened: as §1

[19] = system: COR-L95 (Small Cell Lung Carcinoma); test: as above
Procedure, shortened: as §1

[20] = system: KATOIII (Gastric Carcinoma); test: as above
Procedure, shortened: as §1
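Wherever Bliss excess, mean over the matrix is given: after 72 h of two-drug dosing.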

SMILES	combination Emax [1]	combination Emax [2]	combination Emax [3]	combination Emax [4]	combination Emax [5]	combination Emax [6]	combination Emax [7]	Bliss excess [8]	Bliss excess [9]	Bliss excess [10]	Bliss excess [11]	Bliss excess [12]	Bliss excess [13]	Bliss excess [14]	Bliss excess [15]	Bliss excess [16]	Bliss excess [17]	Bliss excess [18]	Bliss excess [19]	Bliss excess [20]
CN(CCO)CC[C@H](CSc1ccccc1)Nc1ccc(S(=O)(=O)NC(=O)c2ccc(N3CCC([C@@H](O)c4ccccc4-c4ccc(Cl)cc4)CC3)cc2)cc1S(=O)(=O)C(F)(F)F [AZD4320] + CS(=O)(=O)CCNCc1ccc(-c2ccc3ncnc(Nc4ccc(OCc5cccc(F)c5)c(Cl)c4)c3c2)o1 [Lapatinib] (first compound max 1 µM, 7x7, partner max 10 µM)	0.949	0.401	0.244	0.701	1	1	0.883	0.0048	-0.0113	-0.0093	-0.0112	0.0697	-0.0664	-0.0096	-0.052	0.0241	0.0034	0.0409	0.0386	-0.0407
CS(=O)(=O)CCNCc1ccc(-c2ccc3ncnc(Nc4ccc(OCc5cccc(F)c5)c(Cl)c4)c3c2)o1 [Lapatinib] + NC1(c2ccc(-c3nc4ccn5c(=O)[nH]nc5c4cc3-c3ccccc3)cc2)CCC1 [MK-2206] (first compound max 10 µM, 7x7, partner max 10 µM)	0.468	0.666	0.407	0.352	0.944	0.904	0.395	-0.0017	0.0084	-0.003	-0.0044	0.032	0.0027	0.0087	-0.016	0.0364	-0.0559	0.058	0.0048	0.0226
C[C@@H](Oc1cc(-c2cnn(C3CCNCC3)c2)cnc1N)c1c(Cl)ccc(F)c1Cl [Crizotinib] + Cn1cnc2c(F)c(Nc3ccc(Br)cc3Cl)c(C(=O)NOCCO)cc21 [Selumetinib] (first compound max 10 µM, 7x7, partner max 10 µM)	0.794	0.953	0.574	0.624	0.943	0.345	0.194	-0.0472	-0.018	-0.0626	-0.0149	0.0729	0.0598	-0.0246	-0.021	0.0323	-0.064	-0.0327	-0.0955	-0.0081
C[C@@H](Nc1cc(F)cc(F)c1)c1cc(C(=O)N(C)C)cc2c(=O)cc(N3CCOCC3)oc12 [AZD8186] + CC(=O)c1c(C)c2cnc(Nc3ccc(N4CCNCC4)cn3)nc2n(C2CCCC2)c1=O [Palbociclib] (first compound max 10 µM, 7x7, partner max 10 µM)	0.428	0.791	0.497	0.155	0.754	0.273	0.617	0.0797	0.0614	-0.0062	0.0084	0.15	0.0316	0.125	-0.0285	0.0305	-0.0917	0.2	-0.0215	0.0615
N#Cc1cnc(Nc2cc(NC[C@H]3CNCCO3)c(C(F)(F)F)cn2)cn1 [SRA737] + C=CCn1c(=O)c2cnc(Nc3ccc(N4CCN(C)CC4)cc3)nc2n1-c1cccc(C(C)(C)O)n1 [AZD1775] (first compound max 10 µM, partner max 1 µM)	0.239	0.913	0.674	0.599	0.971	0.299	0.467	0.0626	0.0394	-0.0149	0.11	0.133	0.0448	0.14	0.0474	0.0607	-0.0688	0.169	0.0077	-0.0327
Cc1c2c(nn1C)CSCc1cc(n(C)n1)CSc1cc(c3ccccc3c1)OCCCc1c(C(=O)O)n(C)c3c-2c(Cl)ccc13 [AZD5991] + CC(=O)O[C@H]1C(=O)[C@@]2(C)[C@H]([C@H](OC(=O)c3ccccc3)[C@]3(O)C[C@H](OC(=O)[C@H](O)[C@@H](NC(=O)c4ccccc4)c4ccccc4)C(C)=C1C3(C)C)[C@]1(OC(C)=O)CO[C@@H]1C[C@@H]2O [Paclitaxel] (first compound max 1 µM, 7x7, partner max 3 µM)	0.398	0.951	0.734	0.993	1	0.399	0.706	0.0342	-0.1	-0.0231	-0.0432	-0.0174	-0.0453	-0.0341	-0.0074	0.0049	-0.0504	0.0016	-0.0187	-0.0298
